Results on three sequences are retold here after US9018351B2, “Peptide aptamers against tenascin C” (Industry-Academy Cooperation Foundation, priority 2007, dated 2015).

For experiment [1], the system named is tenascin C-induced cell rounding. The experiment in a line: Adhesion assay on fibronectin/tenascin C substratum. In kind it is cell-based, human. The following applies: glioblastoma cells on fibronectin/tenascin C substratum, 18 hrs. On the procedure: (§1) FIGS. 6A-6D represent reversion of tenascin-C-induced cell morphology and migration by the peptide aptamer. […] Magnification, ×100. FIG. 6B was the results that numbers of round cell was scored and presented as percentage. Four independent experiments were performed. FIG. 6C represented U118MG migration with #2 peptides or scrambled peptides. The data are representative of three independent experiments. SD, P<0.001 relative to no treated samples. […] Whole cell extract were prepared and with anti-β-catenin antibody. Anti-β-actin was used as control.
Microtiter plates (6-well, Nunc, Roskilde, Denmark) were coated with 1 μg/cm^2 of fibrobectin or fibronectin and tenascin C for overnight at 4° C. The noncoated plastic surface was blocked with 1% heat-inactivated BSA in PBS. Before plating, cells were serum starved for 18 hrs in DMEM and trypsinized. Following soybean trypsin inhibitor treatment (100 μg/ml in PBS), cells were resuspended in serum-free medium and counted by hematocytometer. Approximately 1×10^5 cells were plated in each well and the selected peptide aptamer or scramble peptide was treated for 18 hrs, cells were observed under microscope.

Experiment [2] concerns tenascin C. The experiment in a line: Immunofluorescence on frozen tumor xenograft tissue sections. The class given is binding, human. Conditions: for staining of U118MG-derived tumor xenograft tissue sections: U118MG glioblastoma xenograft in nude mice, 10 μM biotin-labeled peptide or antibody 1:1000, O/N 4° C. The procedure: FIGS. 4A-4C represent immunofluorescence detection for binding of #2 peptide aptamer to U118MG-derived tumor xenograft tissue. Frozen tissue sections were incubated at 4° C. for O/N with anti-tenascin C antibody (1:1000 dilution) (FIG. 4A), anti-β-catenin antibody (1:100 dilution) (FIG. 4B), 10 μM biotin-labeled peptide aptamer (#2) or scrambled peptide (#2 scr) (FIG. 4C). Tissues were counterstained with Hoechst33258. Arrows indicate examples of positively stained cells. Magnification, ×630. Results using a xenograft mouse model with HT-29 colon cancer cells are also shown (FIG. 4D).
A tumor xenograft was established by subcutaneous injection of 2×10^6 HT29 or U118MG cells into one flank of nude mice. When the tumor diameter reached approximately 9-10 mm, the mice were killed, and the tumor tissue was obtained and […] for storage at −80° C. Frozen sections 8-10 μm thick were cut, fixed with 3.7% paraformaldehyde for 15 min at room temperature, and permeabilized with 0.5% Triton X-100 in PBS. The cells were washed and blocked with 10% fetal bovine serum, 10% non fat dry milk and 3% BSA in PBS for 2 hrs at room temperature. They were stained with anti-tenascin C antibody (BC24; Sigma-Aldrich, Saint Louis, Miss., 1:1000 dilution), anti-β-catenin antibody (clone 14; BD Transduction Laboratories, Germany, 1:100 dilution), or biotin-labeled peptide for O/N at 4° C. Secondary FITC-conjugated anti-mouse IgG antibody (Sigma-Aldrich, Saint Louis, Miss., 1:1000 dilution) or TEXAS RED-conjugated streptavidin (Calbiochem, La Jolla, Calif., 1:1000 dilution) was used for 1 hr at room temperature in the dark. Cells were counterstained with Hoechst33258.
For orientation: In xenograft studies the graft and the host belong to different species.

The target of experiment [3] is T1, tenascin C (Homo sapiens, UniProt P24821).
T1 construct: a tissue microarray prepared with tissues from 52 lung cancer patients; from tissue; host or cells: paraffin-embedded human lung tumor and normal lung tissue (Seoul National University Bundang Hospital)
T1 sequence (P24821 23-2201): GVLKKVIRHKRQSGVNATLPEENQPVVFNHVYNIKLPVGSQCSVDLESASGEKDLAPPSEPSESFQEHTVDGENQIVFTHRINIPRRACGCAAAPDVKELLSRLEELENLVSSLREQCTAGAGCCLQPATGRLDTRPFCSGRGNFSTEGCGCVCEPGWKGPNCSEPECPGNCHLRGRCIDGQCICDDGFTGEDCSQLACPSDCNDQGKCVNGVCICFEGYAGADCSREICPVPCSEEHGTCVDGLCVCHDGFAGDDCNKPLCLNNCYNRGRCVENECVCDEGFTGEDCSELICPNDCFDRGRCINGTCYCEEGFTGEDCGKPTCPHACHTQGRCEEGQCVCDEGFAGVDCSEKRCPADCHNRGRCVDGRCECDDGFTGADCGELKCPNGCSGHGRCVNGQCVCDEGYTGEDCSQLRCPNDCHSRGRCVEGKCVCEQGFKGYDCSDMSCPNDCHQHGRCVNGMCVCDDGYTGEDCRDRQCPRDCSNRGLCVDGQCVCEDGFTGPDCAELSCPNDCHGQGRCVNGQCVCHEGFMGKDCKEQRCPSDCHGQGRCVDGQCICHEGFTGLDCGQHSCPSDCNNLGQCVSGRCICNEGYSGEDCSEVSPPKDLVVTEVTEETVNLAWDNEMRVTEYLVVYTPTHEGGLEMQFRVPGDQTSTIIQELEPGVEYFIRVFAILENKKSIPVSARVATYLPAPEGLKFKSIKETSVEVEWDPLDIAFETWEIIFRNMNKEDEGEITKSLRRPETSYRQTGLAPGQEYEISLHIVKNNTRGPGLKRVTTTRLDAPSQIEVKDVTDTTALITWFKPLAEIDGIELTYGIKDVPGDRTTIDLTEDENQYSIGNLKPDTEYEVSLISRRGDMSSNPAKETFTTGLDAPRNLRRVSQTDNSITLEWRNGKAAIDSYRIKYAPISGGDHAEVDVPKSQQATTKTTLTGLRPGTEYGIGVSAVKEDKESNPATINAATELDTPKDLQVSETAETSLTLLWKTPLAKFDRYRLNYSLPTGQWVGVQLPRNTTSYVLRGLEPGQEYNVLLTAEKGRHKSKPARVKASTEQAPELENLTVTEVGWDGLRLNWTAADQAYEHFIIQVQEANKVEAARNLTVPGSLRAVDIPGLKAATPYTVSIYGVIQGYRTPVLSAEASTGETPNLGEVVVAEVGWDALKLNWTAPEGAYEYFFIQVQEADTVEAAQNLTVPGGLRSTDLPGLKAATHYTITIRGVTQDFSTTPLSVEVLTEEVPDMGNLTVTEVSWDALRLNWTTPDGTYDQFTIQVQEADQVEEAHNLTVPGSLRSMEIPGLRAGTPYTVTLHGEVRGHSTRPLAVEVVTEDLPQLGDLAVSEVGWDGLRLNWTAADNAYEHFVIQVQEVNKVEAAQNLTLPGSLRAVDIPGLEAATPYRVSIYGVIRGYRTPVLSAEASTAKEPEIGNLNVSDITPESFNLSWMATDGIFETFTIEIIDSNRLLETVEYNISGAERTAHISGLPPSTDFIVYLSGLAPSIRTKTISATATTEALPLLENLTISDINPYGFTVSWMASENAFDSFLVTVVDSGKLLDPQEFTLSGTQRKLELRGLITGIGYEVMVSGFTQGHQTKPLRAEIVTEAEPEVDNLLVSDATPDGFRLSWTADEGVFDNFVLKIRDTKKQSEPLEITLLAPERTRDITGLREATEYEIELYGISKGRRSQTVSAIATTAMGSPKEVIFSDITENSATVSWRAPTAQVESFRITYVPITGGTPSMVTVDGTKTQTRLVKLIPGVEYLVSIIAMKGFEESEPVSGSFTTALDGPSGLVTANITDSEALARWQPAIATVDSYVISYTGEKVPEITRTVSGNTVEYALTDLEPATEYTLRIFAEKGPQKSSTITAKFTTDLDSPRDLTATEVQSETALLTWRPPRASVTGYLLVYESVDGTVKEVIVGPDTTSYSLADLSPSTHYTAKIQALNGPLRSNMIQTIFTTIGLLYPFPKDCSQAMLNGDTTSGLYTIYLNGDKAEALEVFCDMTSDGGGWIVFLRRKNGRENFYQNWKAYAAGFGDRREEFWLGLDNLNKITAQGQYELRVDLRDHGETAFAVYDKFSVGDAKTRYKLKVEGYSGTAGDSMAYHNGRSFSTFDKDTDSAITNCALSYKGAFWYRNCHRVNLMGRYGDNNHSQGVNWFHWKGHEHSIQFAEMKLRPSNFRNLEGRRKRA
The experiment in a line: Immunofluorescence analysis of lung tissue microarray. The class given is binding. The procedure: FIGS. 5A-5D represent detection for binding of peptide aptamer #2 to tumor patient lung tissue. Paraffin-embedded lung tissue from an adenocarcinoma (FIG. 5A), squamous cell carcinoma (FIG. 5B), bronchioloalveolar carcinoma (FIG. 5C) and normal (FIG. 5D) tissue was incubated at 4° C. for O/N with anti-tenascin C antibody (1:1000 dilution) or with biotin-labeled peptide aptamer #2 (10 μM). Tissues were counterstained with Hoechst33258. Magnification, ×630.
The lung tissue microarray was constructed from archived paraffin blocks at Seoul National University Bundang Hospital. It is composed of 36 adenocarcinomas, 15 squamous cell carcinomas, 1 bronchioloalveolar carcinoma, and 1 normal lung. Sections were dewaxed in xylene and rehydrated in graded concentrations of ethanol and distilled water. For antigen retrieval, sections were heated for 20 min in Target Retrieval Solution, Tris/EDTA (pH 9; Dako) using a pressure cooker. Staining was carried out with anti-tenascin C antibody (BC24; Sigma-aldrich, Saint Louis, Mo., 1:1000 dilution) or biotin-labeled peptide for O/N at 4° C. Secondary anti-mouse FITC-conjugated IgG antibody or TEXAS RED-conjugated streptavidin was used for 1 hr at room temperature in the dark. Cells were counterstained with Hoechst33258.

The subject of experiment [4] is tenascin C-induced cell migration, U118MG cells. The experiment in a line: Wound scratch assay. The class given is cell-based, human. The following applies: serum free medium, 18 hrs. On the procedure:
as §1
U118MG cells were grown until they become confluent on a 35 mm dish and were serum starved for 18 hrs in DMEM. A straight line was drawn with a marker on the outer surface of the dish bottom and an artificial wound was made by using a pipet tip. The dish was rinsed and then incubated with the serum free medium in the presence of #2 peptides or #2 scramble peptides. After 18 hrs incubation, cells were counted.

The subject of experiment [5] is endogenously expressed tenascin C in the cultured cell lines. As to the kind of experiment: Immunocytochemistry of cultured cancer cell lines with biotin-labeled peptide. The class given is binding, human. The following applies: 1 mM biotin-labeled peptide, 1 hr, room temperature; for staining of SW620 cells: SW620 (medium tenascin C expression). The procedure: FIGS. 3A-3C represent binding pattern of the selected peptides to cultured cells. Cultured cells of SW620 (FIG. 3A), U251 (FIG. 3B) and HCT116 (FIG. 3C) were incubated at room temperature for 1 hr with 1 mM of biotin-labeled peptide aptamers (#1, #2), control peptide (NC), or peptide aptamer #2 (1 mM) plus anti-tenascin C antibody (1:1000 dilution). Nuclei were counterstained with Hoechst33258. Arrows indicate examples of positively stained cells. Magnification, ×1000 (FIG. 3A and FIG. 3C), ×630 (FIG. 3B). Cells were grown on coverslips, fixed with 3.7% paraformaldehyde for 15 min at room temperature, and permeabilized with 0.5% Triton X-100 in PBS. They were washed and blocked in 10% normal calf serum, 0.5% gelatin in PBS for 30 min at room temperature. Staining was carried out with biotin-labeled peptide for 1 hr at room temperature. Secondary TEXAS RED-conjugated streptavidin (Calbiochem, La Jolla, Calif., 1:200 dilution) was applied at room temperature for 50 min in the dark. The cells were counterstained with Hoechst33258. The present inventors utilized U251, SW620 and HCT116 cells as model cell lines for high, medium and no expression of tenascin C protein, respectively (FIG. 1). The biotin-labeled peptide aptamers were used to test whether they recognized the endogenously expressed tenascin C in the cultured cell lines. […] There was no signal with the negative peptide or when aptamer was omitted. Since the peptide aptamer #2 have high frequency and observed a higher level of staining, we used it in subsequent work. The level of staining with U251 cells was higher than with SW620 cells, which may reflect a higher level of tenascin C expression.

As for FHKHKSPALSPVGGG [peptide aptamer #2], in experiment [1], the “effect on tenascin C-induced rounding morphology” value was “significant reversion of tenascin C-induced rounding morphology”. Moreover, the “staining of HT-29 tumor xenograft tissue sections” value with tenascin C [2] (HT-29 colon cancer xenograft (does not express tenascin C)) is listed as “no aptamer signal was detected”. The “staining of U118MG-derived tumor xenograft tissue sections” value in the experiment on tenascin C [2] was “same prominent pattern of staining in the forms of spots and blobs”. In the experiment with tenascin C [3] (1 normal lung, 10 μM biotin-labeled peptide, O/N 4° C.), the “staining of normal lung tissue” value is listed as “No peptide aptamer #2 staining was detected”. Besides, the “staining of lung cancer patient tissues” value with tenascin C [3] (52 lung cancer patients, 10 μM biotin-labeled peptide or antibody 1:1000, O/N 4° C.) is reported as “striking similarity of the staining patterns”. Also, the “effect on tenascin C-induced cell migration” value in experiment [4] was “significantly reduced”. Further, in experiment [5] (HCT116 (no tenascin C expression)), the “staining of HCT116 cells” value was “no signal was detected”. The “staining of SW620 cells” value in experiment [5] is “characteristic staining pattern of spots or long streaks in a polarized region of the plasma membrane”. In addition, in experiment [5] (U251 (high tenascin C expression)), the “staining of U251 cells” value is on record as “stained two distinct areas of the U251 cells”.
For the sequence FHKPFFPKGSARGGG [peptide aptamer #1], in experiment [5], the “staining of SW620 cells” value is listed as “characteristic staining pattern of spots or long streaks in a polarized region of the plasma membrane”.
For the sequence “VSPKSHLKAHPFGGG [#2 scramble, scrambled form of peptide #2, control, reference compound]”, in experiment [1], the “effect on tenascin C-induced rounding morphology” value was “no significant change”. Also, the “staining of U118MG-derived tumor xenograft tissue sections” value in the experiment with tenascin C [2] is on record as “no significant staining”. In addition, the “effect on tenascin C-induced cell migration” value in experiment [4] is “No significant reduction in cell migration”.
